Laboratory results: patent EP0418674A1, “Pharmaceutical preparations for enhanced absorption of antibacterial compounds” (priority 1989, dated 1991)

How the values were obtained:
[1] = Oral absorption in vivo (monkeys): plasma concentration of Ceftriaxon after enteric-coated hard gelatin capsules by gavage; parameters: species or system Papio anubis und Papio hamadryas; conditions: Kontrollwert: 300 mg Ceftriaxon-Na in the same capsule without absorption enhancer
Excerpt: Erwachsene Affen (Papio anubis und Papio hamadryas) im Gewicht von 12-30 kg wurden über Nacht fasten gelassen, dann durch i.m.-Injektion von Ketaminhydrochlorid vor der Verabreichung des Antibiotikums sediert. Jeder Affe erhielt vier Hartgelatinekapseln durch Schlundsonde mit der folgenden Zusammensetzung:
Die Kapseln waren mit einem Ueberzug von Polyvinylacetatphthalat (etwa 8% des Kapselgewichtes) versehen.
Die Plasmakonzentration von Ceftriaxon wurde vor der Verabreichung und 10, 20, 40, 60, 120, 180 und 240 Minuten danach bestimmt.

[2] = Enteral absorption in vivo (rats): plasma level of the antibiotic after intraduodenal injection, agar plate bioassay; conditions: rat, 20 mg/kg, enteral (duodenum), Dosis = 5 mg/0,5 ml
Method: Weibliche Ratten im Gewicht von etwa 250 g wurden über Nacht fasten gelassen und mit Metofan anästhesiert. Die Antibiotika wurden in Lösung mit oder ohne Resorptionsverstärker nach Bauchschnitt in das Duodenum unterhalb des Magenausgangs injiziert. Für Vergleichszwecke wurde die Lösung alternativ intravenös in die Schwanzvene appliziert. Die Antibiotika wurden in Wasser gelöst, so dass die Lösungen (mit oder ohne Verstärker) 20 mg/kg, etwa 5 mg pro Ratte, enthielten.
Die Konzentration des Antibiotikums im Plasma der Ratte wurde nach verschiedenen Zeitintervallen nach intravenöser oder enteraler Verabreichung bestimmt. Blutproben wurden aus der Schwanzvene des Versuchstiers vor der Verabreichung des Antibiotikums und 5, 10, 20, 40, 60, 120, 240 und 360 Minuten danach entnommen, danach zentrifugiert und das Plasma bis zur Analyse eingefroren.
Antibiotika, die nicht an Plasma gebunden waren, wurden mit Wasser verdünnt und gegen in Wasser hergestellte Standards geprüft. Für gebundene Antibiotika wurde der Einfluss der Proteinbindung eliminiert durch Verdünnen aller Standardlösungen und Proben im gesammelten Plasma. Im Fall von Ceftriaxon und Cefazolin wurde der Effekt der Bindung dadurch berücksichtigt, dass Plasmaproben mit Acetonitril mit einem Verdünnungsfaktor 1:12 deproteinisiert und gegen eine Standardkurve in Wasser verdünnt gemessen wurden. Antibiotikaspiegel wurden wie in Tabelle 1 angegeben auf Agarplatten ermittelt. Tabelle 1
Die Platten wurden bei 37°C über Nacht bebrütet und die Hemmzonen auf die nächsten […] abgelesen. Die Berechnungen wurden mittels einer Autoassaymaschine (Giles Scientific, Inc., New York) vorgenommen. Vergleiche J.V. Bennett et al., Applied Microbiology 14, 170-177 (1966).

[3] = Rectal absorption in vivo (monkeys): plasma level of the antibiotic after suppository; conditions: for Cmax: both sexes, monkey, plasma, read-out: Cmax Bereich
Excerpt: Für diesen Versuch wurden männliche und weibliche erwachsene Affen (Papio anubis und Papio hamadryas) im Gewicht vom 12-27 kg verwendet. die über Nacht vor der Verabreichung des Antibiotikums fasten gelassen wurden, dann durch i.m.-Injektionen von Ketamin-Hydrochlorid vor der Verabreichung des Antibiotikums sediert wurden. Aus den nachstehend beschriebenen Formulierungen wurden Suppositorien hergestellt die den Tieren verabreicht wurden. Die Rektalöffnungen wurden dann mit Klebeband verschlossen, um ein Herausdrücken der Suppositorienmasse zu vermeiden.
Zur Messung der Resorption des Antibiotikums in den Blutstrom wurden Blutproben aus der Femoralregion vor der Verabreichung des Antibiotikums und 15, 30, 60, 120, 240, 360 und 480 Minuten danach entnommen. Proben wurden zentrifugiert und wie oben beschrieben vermessen. Die Resultate sind in Tabelle 3 zusammengestellt: Tabelle 3

[4] = 500 mg, rectal suppository, Mit Resorptionsverstärker, Formulierung C (500 mg antibiotic, Labrasol 250 mg, Caprylsäure 200 mg)
[5] = rectal suppository, Mit Resorptionsverstärker, Formulierung D (500 mg antibiotic, Labrasol 250 mg, Caprylsäure 100 mg, Natriumcaprylat 100 mg)
[6] = rectal, Kontrolle ohne Resorptionsverstärker
[7] = rectal suppository, Mit Resorptionsverstärker, Formulierung C (500 mg antibiotic, Labrasol 250 mg, Caprylsäure 200 mg)

Row | Compound | Cmax [3, 4] [ng/mL] | Cmax [3, 5] [ng/mL] | Cmax [3, 6] [ng/mL] | % Bioverfügbarkeit [3, 7] [%] | % Bioverfügbarkeit [3, 5] [%] | % Bioverfügbarkeit [3, 6] [%] | other results
1 | CO/N=C(\C(=O)N[C@@H]1C(=O)N2C(C(=O)O)=C(CSc3nc(=O)c(=O)[nH]n3C)CS[C@H]12)c1csc(N)n1 [Ceftriaxon-Na, Ceftriaxon-Natrium] | – | – | – | – | – | – | Bioverfügbarkeit [1]: 0%
2 | CO/N=C(\C(=O)N[C@@H]1C(=O)N2C(C(=O)O)=C(CSc3nc(=O)c(=O)[nH]n3C)CS[C@H]12)c1csc(N)n1 [Ceftriaxon] | 21600 to 46600 | 16300 to 38300 | 300 to 9000 | 17.3 ± 4.8 | 17.1 ± 5.0 | 4.3 ± 2.8 | Cmax ([2]; female, plasma, other: intraduodenal injection (enteral), Labrasol + Caprylsäure + Natriumcaprylat, weight ratio 4:1:1): 52200 ± 22500 ng/mL; Cmax ([2]; female, plasma, other: intraduodenal injection (enteral), Labrasol + Caprylsäure, weight ratio 2:1): 57000 ± 10200 ng/mL
3 | CN[C@H](CC(C)C)C(=O)N[C@H]1C(=O)N[C@@H](CC(N)=O)C(=O)N[C@H]2C(=O)N[C@H]3C(=O)N[C@H](C(=O)N[C@H](C(=O)O)c4cc(O)cc(O)c4-c4cc3ccc4O)[C@H](O)c3ccc(c(Cl)c3)Oc3cc2cc(c3O[C@@H]2O[C@H](CO)[C@@H](O)[C@H](O)[C@H]2O[C@H]2C[C@](C)(N)[C@H](O)[C@H](C)O2)Oc2ccc(cc2Cl)[C@H]1O [Vancomycin] | – | – | – | – | – | – | Cmax ([2]; female, in vivo, Labrasol + Caprylsäure + Natriumcaprylat, weight ratio 4:1:1): 5300 ± 2100 ng/mL; Cmax ([2]; female, in vivo, Labrasol + Caprylsäure, weight ratio 2:1): 8000 ± 2300 ng/mL
4 | CO[C@@]1(NC(=O)C2SC(=C(C(N)=O)C(=O)O)S2)C(=O)N2C(C(=O)O)=C(CSc3nnnn3C)CS[C@@H]21 (some centres unmarked) [Cefotetan] | 4300 to 21100 | 2500 to 61500 | 2400 to 10100 | 11.4 ± 7.4 | 24.1 ± 12.8 | 4.9 ± 3.1 | Cmax Bereich ([3]; rectal, Kontrolle ohne Resorptionsverstärker, listed as Cefotetran): 3400 to 10100 ng/mL
5 | CC1(C)S[C@@H]2[C@H](NC(=O)Cc3ccccc3)C(=O)N2[C@H]1C(=O)O [Penicillin G] | – | – | – | – | – | – | Cmax ([2]; in vivo, Labrasol + Caprylsäure + Natriumcaprylat, weight ratio 4:1:1): 2900 ± 1600 ng/mL; Cmax ([2]; in vivo, Labrasol + Caprylsäure, weight ratio 2:1): 7200 ± 700 ng/mL
